Measured values published in patent US20060041123A1, “Antibacterial agents” (priority 2002, published 2006).

Assay: Antimicrobial activity assay: whole-cell MIC by broth microdilution (NCCLS M7-A6)
Assay type: cell-based
Conditions: not given
Method: Whole-cell antimicrobial activity was determined by broth microdilution using the National Committee for Clinical Laboratory Standards (NCCLS) recommended procedure, Document M7-A6, “Methods for Dilution Susceptibility Tests for Bacteria that Grow Aerobically”. The compounds were tested in serial two-fold dilutions ranging from 0.016 to 16 mcg/mL. Compounds were evaluated against a panel of Gram-positive organisms, including Staphylococcus aureus WCUH29, Streptococcus pneumoniae 1629, Streptococcus pyogenes CN 10, and Enterococcus faecalis 2. In addition, compounds were evaluated against a panel of Gram-negative strains including Haemophilus influenzae NEMC1, E. coli 7623, and Moraxella catarrhalis Ravasio. The minimum inhibitory concentration (MIC) was determined as the lowest concentration of compound that inhibited visible growth. A mirror reader was used to assist in determining the MIC endpoint.
Compounds of the present invention have MIC's ≦20 μg/ml versus all the organisms named above.

| Structure (SMILES) | MIC [µg/mL] |
| --- | --- |
| COc1ccc2ncc(Cl)c(C(O)CN3CCC(NCc4ccc5c(n4)NC(=O)CO5)CC3)c2n1.Cl.Cl (racemic) [Example 1, 6-({1-[(Racemic)-2-(3-Chloro-6-methoxy-[1,5]naphthyridin-4-yl)-2hydroxy-ethyl]-piperidin-4-ylamino}-methyl)-4H-pyrido[3,2-b][1,4]oxazin-3-one Dihydrochloride] | ≤ 2 |

Same assay, conditions: versus all the organisms named above (S. aureus WCUH29, S. pneumoniae 1629, S. pyogenes CN 10, E. faecalis 2, H. influenzae NEMC1, E. coli 7623, M. catarrhalis Ravasio); read-out: MIC

| Structure (SMILES) | MIC [µg/mL] |
| --- | --- |
| COc1ccc2ncc(F)c(CCN3CC[C@@H](NCc4cc5c(cn4)OCCO5)[C@H](O)C3)c2c1.Cl.Cl (relative stereo) [Example 117, trans-4-[(2,3-dihydro[1,4]dioxino[2,3-c]pyridin-7-ylmethyl)amino]-1-{2-[3-fluoro-6-(methoxy)-4-quinolinyl]ethyl}-3-piperidinol dihydrochloride] | ≤ 2 |
| COc1ccc2ncc(F)c(CCN3CC[C@@H](NCc4ccc5c(n4)NC(=O)CO5)[C@H](O)C3)c2c1.Cl.Cl (relative stereo) [Example 133, trans-6-{[(1-{2-[3-fluoro-6-(methoxy)-4-quinolinyl]ethyl}-3-hydroxy-4-piperidinyl)amino]methyl}-2H-pyrido[3,2-b][1,4]oxazin-3(4H)-one dihydrochloride] | ≤ 2 |
| COc1ccc2ncc(Cl)c(CCN3CC[C@H](NCc4ccc5c(n4)NC(=O)CO5)[C@H](O)C3)c2c1.Cl.Cl (single isomer, unassigned; enantiomer 1) [Example 5, 6-({(cis)-1-[2-(3-Chloro-6-methoxy-quinolin-4-yl)-ethyl]-3-hydroxy-piperidin-4-ylamino}-methyl)-4H-pyrido[3,2-b][1,4]oxazin-3-one Dihydrochloride Enantiomer 1] | ≤ 2 |
| COc1ccc2ncc(Cl)c(CCN3CC[C@H](NCc4ccc5c(n4)NC(=O)CS5)[C@H](O)C3)c2c1.Cl.Cl (single isomer, unassigned; enantiomer 1) [Example 7, 6-({(cis)-1-[2-(3-Chloro-6-methoxy-quinolin-4-yl)-ethyl]-3-hydroxy-piperidin-4-ylamino}-methyl)-4H-pyrido[3,2-b][1,4]thiazin-3-one Dihydrochloride Enantiomer 1] | ≤ 2 |
| COc1ccc2ncc(Cl)c(CCN3CC[C@H](NCc4ccc5c(n4)NC(=O)CS5)[C@H](O)C3)c2n1.Cl.Cl (single isomer, unassigned; enantiomer 1) [Example 11, 6-({(cis)-1-[2-(3-Chloro-6-methoxy-[1,5]naphthyridin-4-yl)-ethyl]-3-hydroxy-piperidin-4-ylamino}-methyl)-4H-pyrido[3,2-b][1,4]thiazin-3-one Dihydrochloride Enantiomer 1] | ≤ 2 |
| COc1ccc2ncc(Cl)c(CCN3CC[C@H](NCc4cc5c(cn4)OCCO5)[C@H](O)C3)c2n1.Cl.Cl (single isomer, unassigned; enantiomer 1) [Example 29, (cis)-1-[2-(3-Chloro-6-methoxy-[1,5]naphthyridin-4-yl)-ethyl]-4-[(2,3-dihydro-[1,4]dioxino[2,3-c]pyridin-7-ylmethyl)-amino]-piperidin-3-ol Dihydrochloride Enantiomer 1] | ≤ 2 |
| COc1ccc2ncc(F)c(CCN3CC[C@H](NCc4cc5c(cn4)OCCO5)[C@H](O)C3)c2c1.Cl.Cl.Cl.Cl (single isomer, unassigned; enantiomer 1) [Example 34, cis-4-[(2,3-Dihydro-[1,4]dioxino[2,3-c]pyridin-7-ylmethyl)-amino]-1-[2-(3-fluoro-6-methoxy-quinolin-4-yl)-ethyl]-piperidin-3-ol dihydrochloride dihydrochloride Enantiomer 1] | ≤ 2 |
| COc1ccc2ncc(Cl)c(C(O)CN3CCC(NCc4cc5c(cn4)OCCO5)CC3)c2n1.Cl.Cl (single isomer, unassigned; enantiomer 1) [Example 35, {1-[2-(3-Chloro-6-methoxy-[1,5]naphthyridin-4-yl)-2-hydroxyethyl]-piperidin-4-yl}-(2,3-dihydro-[1,4]dioxino[2,3-c]pyridin-7-ylmethyl)-amine Dihydrochloride Enantiomer 1] | ≤ 2 |
